We go through 3 compounds from publication PMC3502291, “Identification of Small Molecule Inhibitors of PTPσ through an Integrative Virtual and Biochemical Approach” (PLoS ONE, 2012).

Holding throughout (type): biochemical
The target of assay [1] is T1, PTPσ (Homo sapiens, UniProt Q13332).
T1 construct: gene PTPRS; GST-tagged recombinant PTPσ, all residues C-terminal to the transmembrane domain (BC104812 cDNA; aa 883-1501)
T1 sequence (Q13332 1330-1948): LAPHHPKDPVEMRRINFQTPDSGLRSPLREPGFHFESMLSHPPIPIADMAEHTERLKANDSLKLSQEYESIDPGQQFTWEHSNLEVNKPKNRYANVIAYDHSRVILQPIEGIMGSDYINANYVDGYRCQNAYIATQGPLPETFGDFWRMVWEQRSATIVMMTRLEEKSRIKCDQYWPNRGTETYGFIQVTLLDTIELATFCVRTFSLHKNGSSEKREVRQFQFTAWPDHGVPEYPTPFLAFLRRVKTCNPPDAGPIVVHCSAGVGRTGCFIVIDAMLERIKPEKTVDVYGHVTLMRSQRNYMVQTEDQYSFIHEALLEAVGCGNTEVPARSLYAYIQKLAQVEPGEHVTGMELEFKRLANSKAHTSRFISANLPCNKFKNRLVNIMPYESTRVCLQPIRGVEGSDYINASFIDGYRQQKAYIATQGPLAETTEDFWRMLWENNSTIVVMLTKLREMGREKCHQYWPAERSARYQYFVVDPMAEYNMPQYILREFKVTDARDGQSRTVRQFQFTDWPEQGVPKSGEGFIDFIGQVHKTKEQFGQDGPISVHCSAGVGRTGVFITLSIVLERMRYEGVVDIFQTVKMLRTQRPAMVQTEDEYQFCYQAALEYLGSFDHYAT
Put plainly: pNPP phosphatase assay with purified GST-PTPσ, positive control.

Assay [2] addresses T1, PTPσ. Description: pNPP phosphatase assay with purified GST-PTPσ, dose-response, with and without catalase.
In assay [3] the target is T1, PTPσ. Put plainly: Km from initial velocities of dephosphorylation ([…] nm absorbance).

As for `[O]=[V]([OH])([OH])[OH]` [Na3VO4, sodium orthovanadate], on PTPσ [1], the “pNPP phosphatase assay with purified GST-PTPσ, positive control” value was “Sodium orthovanadate (Na3VO4) is a pan inhibitor of PTPs and was included as a positive control”. The IC50 is the concentration at which inhibition is half-maximal. On PTPσ [2], `O=C(C=CNc1cc([N+](=O)[O-])ccc1O)c1ccc(Cl)c(Cl)c1` [compound 36, 1-(3,4-dichlorophenyl)-3-[(2-hydroxy-5-nitrophenyl)amino]-2-propen-1-one] came in with an IC50 of 10 µM. As usually defined, the Km is the substrate concentration at which the rate is half of its maximum. As for para-nitrophenyl phosphate [pNPP], the Km on PTPσ [3] was found to be 250 µM.
